Assay [1] has as its target NLRP3 inflammasome (Homo sapiens, UniProt Q96P20). Briefly: NLRP3 inflammasome activation in THP1 macrophages (LPS priming, nigericin), IL-1β AlphaLISA. Type of assay: cell-based. To be noted: PMA-differentiated THP1, LPS 20 ng/ml 3 hrs, compound 1 hr, Nigericin 6.7 uM 3 hrs, supernatant.
For assay [2], the system named is IL-6. Briefly: IL-6 release from LPS-primed, nigericin-treated THP1 macrophages, Hu IL-6 AlphaLISA. The class given is cell-based. To be noted: Homo sapiens, THP-1; PMA-differentiated THP1, LPS 20 ng/ml 3 hrs, compound 1 hr, Nigericin 6.7 uM 3 hrs, supernatant.

The values that follow come from patent US20250074888A1, “PYRIDAZINE DERIVATIVES AS MODULATORS OF NLRP3 INFLAMMASOME AND RELATED METHODS” (Neumora Therapeutics, Inc., priority 2021, published 2025).

SMILES strings stand for the structures.

In general, IC50 refers to the concentration that inhibits the measured activity by half.

Sequence of NLRP3 inflammasome (Q96P20 whole entry): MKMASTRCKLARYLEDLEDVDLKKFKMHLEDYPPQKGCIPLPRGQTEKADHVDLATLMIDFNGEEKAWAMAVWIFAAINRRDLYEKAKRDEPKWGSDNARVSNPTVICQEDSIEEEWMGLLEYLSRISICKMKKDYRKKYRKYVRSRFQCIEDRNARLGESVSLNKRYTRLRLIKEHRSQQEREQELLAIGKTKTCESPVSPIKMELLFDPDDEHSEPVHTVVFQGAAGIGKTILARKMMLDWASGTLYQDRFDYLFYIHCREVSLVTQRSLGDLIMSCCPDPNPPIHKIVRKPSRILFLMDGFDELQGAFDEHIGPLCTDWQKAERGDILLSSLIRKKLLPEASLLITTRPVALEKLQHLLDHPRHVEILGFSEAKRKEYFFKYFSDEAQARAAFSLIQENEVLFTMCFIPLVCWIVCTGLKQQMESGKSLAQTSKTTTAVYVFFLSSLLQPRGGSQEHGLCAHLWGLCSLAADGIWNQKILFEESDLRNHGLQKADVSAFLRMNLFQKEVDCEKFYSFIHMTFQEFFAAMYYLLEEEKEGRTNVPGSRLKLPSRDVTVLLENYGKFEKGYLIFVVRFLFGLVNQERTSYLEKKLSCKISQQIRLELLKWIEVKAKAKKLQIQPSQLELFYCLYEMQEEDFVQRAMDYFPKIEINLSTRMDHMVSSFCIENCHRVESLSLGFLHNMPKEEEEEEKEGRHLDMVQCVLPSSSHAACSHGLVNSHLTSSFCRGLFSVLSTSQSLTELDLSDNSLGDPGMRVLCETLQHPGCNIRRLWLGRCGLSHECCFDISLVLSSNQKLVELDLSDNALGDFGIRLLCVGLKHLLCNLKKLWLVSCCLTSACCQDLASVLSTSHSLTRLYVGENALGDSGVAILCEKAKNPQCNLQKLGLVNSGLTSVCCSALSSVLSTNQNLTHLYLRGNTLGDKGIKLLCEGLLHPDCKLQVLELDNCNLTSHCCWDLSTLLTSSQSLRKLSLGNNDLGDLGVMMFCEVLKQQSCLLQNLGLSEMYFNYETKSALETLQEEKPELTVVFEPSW

Consider `Cc1cc(F)ccc1-c1ccc(N[C@@H]2CCCN(C)C2)nn1` [compound 134], for which the IC50 in assay [1] is 0.1 to 0.5 µM; in assay [2] it was over 10 µM.
The matching figures for `Cc1cc(N[C@@H]2CCCN(C(C)C)C2)nnc1-c1ccc(F)cc1` [compound 135]: 0.01 to 0.05 µM and over 10 µM.
The matching figures for `Cc1cc(N[C@H]2CN(C)CC[C@@H]2F)nnc1-c1ccc(C(F)(F)F)cc1` [compound 136]: 0.05 to 0.1 µM and 5 to 10 µM.
In the case of `Cc1cc(N[C@@H]2C[C@H](F)CN(C)C2)nnc1-c1ccc(C(F)(F)F)cc1` [compound 137], the IC50 was 0.1 to 0.5 µM in assay [1] and over 10 µM in assay [2].
The matching figures for `Cc1cc(N[C@H]2CN(C)CC[C@@H]2F)nnc1-c1ccc(F)cc1` [compound 138]: over 1 µM and over 10 µM.
The matching figures for `Cc1cc(N[C@@H]2C[C@H](F)CN(C)C2)nnc1-c1ccc(F)cc1` [compound 139]: 0.5 to 1 µM and 5 to 10 µM.
The matching figures for `Cc1cc(N[C@@H]2C[C@@H](F)CN(C)C2)nnc1-c1ccc(F)cc1` [compound 140]: over 1 µM and over 10 µM.
In the case of `Cc1cc(C(F)(F)F)c(C)cc1-c1ccc(N[C@@H]2CCCN(C)C2)nn1` [compound 141], the IC50 in assay [1] was over 1 µM; in assay [2], over 10 µM.
The matching figures for `Cc1cc(N(C)[C@@H]2CCCN(C)C2)nnc1-c1ccc(C(F)(F)F)cc1` [compound 142, (R)—N,5-dimethyl-N-(1-methylpiperidin-3-yl)-6-(4-(trifluoromethyl)phenyl)pyridazin-3-amine]: 0.1 to 0.5 µM and 1 to 5 µM.
The matching figures for `CN1CCC[C@@H](Nc2cc(F)c(-c3ccc(C(F)(F)F)cc3)nn2)C1` [compound 143]: 0.01 to 0.05 µM and over 10 µM.
The matching figures for `Cc1cc(N[C@@H]2C[C@@H](F)CN(C(C)C)C2)nnc1-c1ccc(C(F)(F)F)cc1` [compound 144]: 0.1 to 0.5 µM and 5 to 10 µM.
`Cc1cc(N[C@@H]2CCCN(C)C2)nnc1-c1ccc(Cl)c(F)c1` [compound 145]: the concentration for half-maximal inhibition (IC50) in assay [1] is 0.05 to 0.1 µM; in assay [2] it was over 10 µM.
The matching figures for `CCN1C[C@H](F)C[C@@H](Nc2cc(C)c(-c3ccc(C(F)(F)F)cc3)nn2)C1` [compound 146]: at most 0.01 µM and 5 to 10 µM.
`Cc1cc(-c2ccc(Cl)c(F)c2)nnc1N[C@@H]1CCCN(C)C1` [compound 147]: the results for the IC50 in assay [1] and in assay [2] were over 1 µM and 5 to 10 µM, respectively.
The matching figures for `CN1CCC[C@@H](Nc2nnc(-c3ccc(F)cc3)cc2C(F)(F)F)C1` [compound 148]: over 1 µM and over 10 µM.
The matching figures for `Cc1cc(-c2ccc(Cl)cc2F)nnc1N[C@@H]1CCCN(C)C1` [compound 149]: 0.1 to 0.5 µM and 5 to 10 µM.
The matching figures for `CCN1C[C@H](F)C[C@@H](Nc2cc(C)c(-c3ccc(F)cc3)nn2)C1` [compound 150]: over 1 µM and over 10 µM.
As to `CCN1C[C@H](F)C[C@@H](Nc2cc(C)c(-c3ccc(Cl)cc3)nn2)C1` [compound 151], the values for the IC50 in assay [1] and in assay [2] were over 1 µM and 1 to 5 µM, respectively.
The matching figures for `Cc1cc(N[C@@H]2C[C@@H](F)CN(C(C)C)C2)nnc1-c1ccc(Cl)cc1` [compound 152]: 0.01 to 0.05 µM and over 10 µM.
The matching figures for `Cc1cc(N[C@@H]2CCCN(C)C2)nnc1-c1ccc(Cl)cc1F` [compound 153]: over 1 µM and 5 to 10 µM.
In the case of `Cc1cc(F)ccc1-c1cc(F)c(N[C@@H]2CCCN(C)C2)nn1` [compound 154], the values for the IC50 in assay [1] and in assay [2] were 0.1 to 0.5 µM and over 10 µM, respectively.
For `CCN1CCC[C@@H](Nc2cc(C)c(-c3ccc(Cl)cc3)nn2)C1` [compound 155], the IC50 in assay [1] was at most 0.01 µM; in assay [2], over 10 µM.
The matching figures for `Cc1cc(N[C@@H]2CCCN(C(C)C)C2)nnc1-c1ccc(Cl)cc1` [compound 156]: at most 0.01 µM and over 10 µM.
As for `Cc1cc(N[C@@H]2CCCN(C)C2)nnc1-c1ccc(C(F)F)cc1` [compound 157], the IC50 in assay [1] was 0.01 to 0.05 µM; in assay [2], over 10 µM.
The matching figures for `Cc1cc(C(F)(F)F)ccc1-c1cc(O)c(N[C@@H]2CCCN(C)C2)nn1` [compound 158]: 0.1 to 0.5 µM and 5 to 10 µM.
The matching figures for `Cc1cc(N[C@@H]2CCCN(C)C2)nnc1-c1ccccc1C(F)F` [compound 159]: 0.5 to 1 µM and 5 to 10 µM.
The matching figures for `Cc1cc(-c2ccccc2C(F)F)nnc1N[C@@H]1CCCN(C)C1` [compound 160]: 0.5 to 1 µM and 1 to 5 µM.
With `Cc1c(-c2ccc(N[C@@H]3CCCN(C)C3)nn2)ccc(C(F)(F)F)c1C` [compound 161], the results for the half-inhibitory concentration (IC50) in assay [1] and in assay [2] were 0.1 to 0.5 µM and over 10 µM, respectively.
Turning to `Cc1cc(-c2nnc(N[C@@H]3CCCN(C)C3)cc2C)ccc1Cl` [compound 162], the IC50 was 0.01 to 0.05 µM in assay [1] and over 10 µM in assay [2].
The matching figures for `Cc1cc(-c2cc(C)c(N[C@@H]3CCCN(C)C3)nn2)ccc1Cl` [compound 163]: over 1 µM and over 10 µM.
For `COc1cc(F)cc(C)c1-c1ccc(N[C@@H]2CCCN(C)C2)nn1` [compound 164], the half-inhibitory concentration (IC50) in assay [1] was over 1 µM; in assay [2], over 10 µM.
For the compound `Cc1cc(N[C@@H]2CCCN(C)C2)nnc1-c1ccc(C(F)(F)F)cc1C(F)F` [compound 165], the IC50 in assay [1] is at most 0.01 µM; in assay [2] it was over 10 µM.
The matching figures for `Cc1cc(-c2ccc(C(F)(F)F)cc2C(F)F)nnc1N[C@@H]1CCCN(C)C1` [compound 166]: 0.01 to 0.05 µM and over 10 µM.
`CCN(c1cc(C)c(-c2ccc(C(F)(F)F)cc2)nn1)[C@@H]1CCCN(C)C1` [compound 167]: the figures for the half-inhibitory concentration (IC50) in assay [1] and in assay [2] were 0.1 to 0.5 µM and over 10 µM, respectively.
In the case of `Cc1cc(N[C@@H]2CCCN(C)C2)nnc1-c1ccc(Cl)cc1C#N` [compound 168], the IC50 was in the range of 0.01 to 0.05 µM in assay [1] and 5 to 10 µM in assay [2].
The matching figures for `Cc1cc(N[C@@H]2CCCN(C)C2)nnc1-c1ccc(Cl)cc1C(F)(F)F` [compound 169]: 0.01 to 0.05 µM and over 10 µM.
The matching figures for `Cc1cc(-c2ccc(Cl)cc2C(F)(F)F)nnc1N[C@@H]1CCCN(C)C1` [compound 170]: 0.01 to 0.05 µM and over 10 µM.
The matching figures for `Cc1cc(N[C@@H]2CCCN(C)C2)nnc1-c1ccc(Cl)cc1Cl` [compound 171]: at most 0.01 µM and over 10 µM.
As for `COc1cc(N[C@@H]2CCCN(C)C2)nnc1-c1ccc(C(F)(F)F)cc1C` [compound 172], the results for the IC50 in assay [1] and in assay [2] were over 1 µM and over 10 µM, respectively.
The matching figures for `Cc1cc(-c2ccc(Cl)cc2C#N)nnc1N[C@@H]1CCCN(C)C1` [compound 173]: over 1 µM and over 10 µM.
The matching figures for `Cc1cc(N[C@@H]2CCCN(C)C2)nnc1-c1ccc(Cl)cc1C(F)F` [compound 174]: at most 0.01 µM and 5 to 10 µM.
As for `Cc1cc(-c2ccc(Cl)cc2C(F)F)nnc1N[C@@H]1CCCN(C)C1` [compound 175], the results for the concentration for half-maximal inhibition (IC50) in assay [1] and in assay [2] were at most 0.01 µM and over 10 µM, respectively.
The matching figures for `Cc1cc(N[C@@H]2CCCCN(C)C2)nnc1-c1ccc(C(F)(F)F)cc1` [compound 176]: 0.05 to 0.1 µM and over 10 µM.
The matching figures for `Cc1cc(O[C@@H]2CCCN(C)C2)nnc1-c1ccc(C(F)(F)F)cc1` [compound 177, (R)-4-methyl-6-((1-methylpiperidin-3-yl)oxy)-3-(4-(trifluoromethyl)phenyl)pyridazine]: 0.1 to 0.5 µM and over 10 µM.
The matching figures for `Cc1cc(-c2ccc(C(F)(F)F)cc2)nnc1O[C@@H]1CCCN(C)C1` [compound 178]: over 1 µM and 1 to 5 µM.
Regarding `Cc1cc(O[C@@H]2CCCN(C)C2)nnc1-c1ccc(F)cc1` [compound 179], the half-inhibitory concentration (IC50) is over 1 µM in assay [1] and over 10 µM in assay [2].
Consider `Cc1cc(-c2ccc(F)cc2)nnc1O[C@@H]1CCCN(C)C1` [compound 180], for which the IC50 in assay [1] is over 1 µM; in assay [2], over 10 µM.
The matching figures for `Cc1cc(Cl)ccc1-c1nnc(O[C@@H]2CCCN(C)C2)cc1C` [compound 181]: 0.5 to 1 µM and at most 1 µM.
The matching figures for `Cc1cc(-c2ccc(C(F)(F)F)cc2)nnc1N[C@@H]1CCN(C)C1` [compound 182]: 0.05 to 0.1 µM and over 10 µM.
`Cc1cc(N[C@@H]2CCN(C)C2)nnc1-c1ccc(F)cc1` [compound 183]: the IC50 in assay [1] is 0.1 to 0.5 µM; in assay [2], over 10 µM.
The matching figures for `Cc1cc(N(C)[C@@H]2CCN(C)C2)nnc1-c1ccc(F)cc1` [compound 184]: over 1 µM and 5 to 10 µM.
The matching figures for `Cc1cc(N(C)[C@@H]2CCN(C)C2)nnc1-c1ccc(C(F)(F)F)cc1` [compound 185]: over 1 µM and 1 to 5 µM.
Regarding `Cc1cc(N[C@@H]2CCN(C)C2)nnc1-c1ccc(C(F)(F)F)cc1` [compound 186], the values for the IC50 in assay [1] and in assay [2] were at most 0.01 µM and over 10 µM, respectively.
The matching figures for `Cc1cc(Cl)ccc1-c1nnc(N[C@@H]2CCN(C)C2)cc1C` [compound 187]: over 1 µM and over 10 µM.
The matching figures for `Cc1cccc(C(F)F)c1-c1ccc(N[C@@H]2CCCN(C)C2)nn1` [compound 189]: over 1 µM and over 10 µM.
The matching figures for `Cc1cc(N[C@@H]2C[C@@H](F)CN(C(C)C)C2)nnc1-c1ccc(F)cc1` [compound 190]: 0.05 to 0.1 µM and over 10 µM.
On to `Cc1c(-c2ccc(C(F)(F)F)cc2)nnc(N[C@@H]2CCCN(C)C2)c1O` [compound 191], for which the values for the concentration for half-maximal inhibition (IC50) in assay [1] and in assay [2] were 0.01 to 0.05 µM and over 10 µM, respectively.
The matching figures for `CN1CCC[C@@H](Nc2cc(C(F)(F)F)c(-c3ccc(F)cc3)nn2)C1` [compound 192]: at most 0.01 µM and over 10 µM.
